How the values were obtained:
[1] = Antacid power, measured according to the pharmacopoeia of Japan; format: physicochemical
[2] = Measurement of adsorption amount of naphthol yellow S; format: physicochemical; conditions: 1.0 g powder in 500 mL NYS aqueous solution 100 ppm, 30° C., 1 hour
Method: [Measurement of Adsorption Amount of Naphthol Yellow S]
1.0 g of a powder sample was added to 500 mL of an aqueous solution of naphthol yellow S (NYS) (concentration 100 ppm). The mixture was stirred at 30° C. for 1 hour and then filtered to obtain a filtrate. The concentration of NYS in the filtrate was measured with a spectrophotometer and the adsorption amount of the sample was obtained.

[3] = tested on: water immersion restraint stress ulcer; assay: Influence on rat water immersion restraint stress ulcer; format: in vivo, Wister rats; conditions: oral, 30 minutes before stress, 7 hours stress; for Length of gastric mucosa impairment: control 14.7 mm
From the text: [Influence on Rat Water Immersion Restraint Stress Ulcer]
The powders obtained in Examples 1, 2 and 3, a mixed powder containing the powder obtained in Example 2 and basic zinc carbonate (Zn=58%), the powders obtained in Comparative Examples 1 and 2, lansoprazole as a proton pump inhibitor and sucralfate, which is most highly evaluated as a gastric mucosa protective agent, were used as test specimens. These test specimens were examined for effect on water immersion restraint stress ulcer, which is an acute ulcer model.
Eight Wister rats as a group were preliminarily reared for a few days. The rats were fasted for 24 hours. Then, the rats were placed in a stress cage according to the method of Takagi et al. (Jap, J, Pharacol, 18:9, 1968). The rats were immersed up to xiphoid process parts in a water tank having a temperature of 23° C. and the rats were subjected to stress for 7 hours. Then, their stomachs were taken out under ether anesthesia. About 12 mL of 2% formalin physiological saline solution was injected into each stomach, to fix the stomach. Then, each stomach was cut out along a curvatura ventriculi major side. The length (mm) of mucosa ulcer at a glandular stomach portion was measured.
As to oral administration of the test specimens, 5 mL/kg (rat weight) of a liquid containing a test specimen was administered 30 minutes before the load of the stress. In Control, the same amount of water was administered.

Antacid power [1] | NYS adsorption amount [2] | Compound | Inhibition rate ([3]; dosage 40 mg/kg) | Length of gastric mucosa impairment ([3]; dosage 40 mg/kg) | Inhibition rate ([3]; dosage 500 mg/kg) | Length of gastric mucosa impairment ([3]; dosage 500 mg/kg)
0 mL/g | 0 mg/g | Cc1c(OCC(F)(F)F)ccnc1C[S+]([O-])c1nc2ccccc2[nH]1 (centres unmarked) [Lansoprazole, lansoprazole] | 78% | 3.2 mm | – | –
168 mL/g | 0.60 mg/g | sucralfate | – | – | 71% | 4.3 mm

From patent publication US20110206779A1, “GASTRIC ULCER THERAPEUTIC AGENT” (priority 2010, published 2011)
